Values of other authors as cited in patent US20070281997A1, “TREATMENT OF HOT FLASHES USING MUSCARINIC RECEPTOR ANTAGONISTS” (priority 2006, published 2007).

Tested on: hot flashes
Conditions: men receiving androgen deprivation therapy; previous reports, pilot studies

Question: Which “efficacy to reduce hot flashes” value does the source give for `CC(=O)[C@@]1(O)CC[C@H]2[C@@H]3C=C(C)C4=CC(=O)CC[C@]4(C)[C@H]3CC[C@@]21C` [megasterol] here?
Answer: efficacious

Question: Which “efficacy to reduce hot flashes” value does the source give for `Fc1ccc([C@@H]2CCNC[C@H]2COc2ccc3c(c2)OCO3)cc1` [paroxetine] here?
Answer: shown efficacy

Question: For `COc1ccc(C(CN(C)C)C2(O)CCCCC2)cc1` (stereo not drawn) [venlafaxine], which “efficacy to reduce hot flashes” value is on record?
Answer: shown efficacy
